Assay results from US20260364186A1, “Chemical Conjugates, Compositions, and Methods of Preparation and Use Thereof” (Transfection Holdings Limited, priority 2022, published 2026).
Entries after “also recorded” stand apart in the source; their conditions may differ.

Key:
[1] = tested on: NZM11 melanoma cancer cell line; assay: FACS uptake of BODIPY FL conjugates, 50 nM, 5 min (Example 1); format: cell-based, human
Experimental: FIG. 1. Conjugate compounds coupled to BODIPY FL were tested for uptake using 50 nM each conjugate and 5 minute incubation with HEM (human epidermal melanocytes) and melanoma cell line NZM11 (BRAF V600E mutant metastatic melanoma). Mean fluorescent intensities (MFI). For these tests, n=300-500, mean±SD. Results were from a single experiment done in triplicate. Cells were sorted by FACS.
Materials and methods: NZM11 is an adherent metastatic melanoma cell derived from a patient with a subcutaneous lesion on their mid back. This human metastatic melanoma is identified with code CBA-1398 from Cell bank Australia. […] Cells of NZM11 diluted in MEMα media and cells of HEMnDP (primary melanocyte cell line) diluted in media 254 were left to settle in 96-wells microplate for 48 hours. 10 μL of 10 mM stock solutions in DMSO from 138 and pantothenic acid/pantothenic acid derivatives coupled to BODIPY were diluted with HBSS to afford 100 nM solution. Then, 100 nM compounds and DMSO solutions were diluted 1:1 with MEMα media for NZM11 and media 254 for HEMnDP to afford 50 nM solutions. After the 48 hour settle time, media was removed from the cells and 200 μL of 50 nM media solutions were poured to each well and incubated for 5 minutes at 37 °C. […] The FACS results output represented the mean of the fluorescence intensities (in arbitrary units) measured for cells sorted in every sample

[2] = tested on: PBMCs / normal blood cells; assay: FACS uptake of BODIPY FL conjugates in PBMCs (Example 3); format: cell-based, human; details: 135 nM
Experimental: (§1) FIG. 3A. Conjugate compounds coupled to BODIPY FL were tested for uptake using 135 nM each conjugate and 4.5 minute incubation with human lymphocytes, monocytes and neutrophils (from a healthy donor). Mean fluorescent intensities (MFI). 1,000 cells (lymphocytes), 500 cells (monocytes) and 250 cells (neutrophils) sorted by FACS. Bars represent mean±SD. Results represent a single experiment done in duplicate.
(§2) In addition to this, 25 mL of full blood was collected from a healthy donor in lithium-heparin vacutainer. Peripheral blood mononuclear cells (PBMCs) were collected after ficoll separation. PBMCs then were centrifuge at 400 g for 5 minutes. Supernatant was removed from the cells and resuspended with 20 mL of HBSS with a final concentration of 417,500 cells/mL. Then, 479 μL of cells suspension were poured into Eppendorf tube and 1000 μL of 200 nM drug solution in HBSS were added to afford 135 nM final drug concentration, incubated at 37 °C for 5 minutes. After incubation time, PBMCs were centrifuged at 400 g for 5 minutes. Supernatant was removed from the cells and pellet resuspended with 200 μL of HBSS. Suspension was transferred to 96 well-plate and run on FACS machine, approximately 1,000-250 cells analysed. The FACS results output represented the mean of the fluorescence intensities (in arbitrary units) measured for cells sorted in every sample.

[3] = tested on: mouse embryonic fibroblasts MEF; assay: FACS uptake of BODIPY FL conjugates (Example 4); format: cell-based; details: 200 nM, 5 min
Experimental: FIG. 4B: Conjugate compounds coupled to BODIPY FL were tested for uptake using 200 nM each conjugate and 5 minute incubation with mouse embryonic fibroblasts MEF. Mean fluorescent intensities (MFI). 1,000 cells were sorted by FACS.
Fibroblasts are ubiquitous mesenchymal cells that are thought to play important roles in wound repair and healing, and serve as reservoirs of multipotent progenitors capable of repopulating depleted cell compartments. Primary mouse embryonic fibroblast (MEF) cultures consist of highly heterogeneous populations of distinct cell types. Singhal, P. K., et al., 2016. MEF cells have a limited growth capacity and on prolonged passaging spontaneously immortalize at a low frequency. In contrast to transformation of primary MEF cells that requires the presence of two cooperating oncogenes, immortalised MEF cells can be transformed by a single oncogene (Ras) resulting in a loss of contact inhibition, anchorage-independent growth, and tumour formation in nude mice. Studies of MEF cells have played an important role in the elucidation of the molecular mechanisms underlying cellular immortalization, transformation, and tumorigenesis. Additionally, utilization of MEF cells disrupted for specific genes has provided a powerful tool to analyse the genetic regulation of these cellular processes. Sun and Taneja, 2007. […]

[4] = Whole body fluorescent cryo-imaging, tissue distribution (Example 13); format: in vivo, mouse; details: 0.7 mg/kg i.v., 1 hour post dosing
Experimental: Materials and methods: Compound 124 was supplied as a 10 mM stock solution in DMSO. NZM011 cells were grown in AMEM, 5% FBS, 5 μg/mL insulin, 5 μg/mL transferrin, 5 ng/mL sodium selenite at 37 °C with 5% O2, 90% N2 5% CO2. The study was performed in 6-week-old male NIH-III athymic mice (strain code 201). Work was carried out by Ichor Biosciences La Fayette NY, USA. Mice were injected on one flank with 5×10^6 NZM11 cells in a 50:50 matrigel:media suspension with a 22G needle. When tumours reach over 500 mm3 the mice were administered intravenously (tail vein) with a solution of compound 124 in phosphate buffered saline at a dose of 0.7 mg/kg. The mice were euthanized at 1 hour or 6 hours post dosing and frozen for cryoimaging. A control mouse received no tumour cells or compound 124 and was euthanized and frozen for cryoimaging at the same time as the treated mice.
Processed animals were cryoimaged imaged at BioInvision in Cleveland Ohio. Whole animal was sectioned at 40 microns and imaged using brightfield at fluorescent modes (503 nm). In-plane pixel size 10 microns. Mouse #1 with tumour on one flank at 500 mm3, treated with compound 124 (0.7 mg/kg) and euthanised 1 hour post treatment. Mouse #6 no tumour or compound 124 treatment euthanised on same day.

monocytes = assay: FACS uptake of BODIPY FL conjugates in PBMCs (Example 3); format: cell-based, human; details: 135 nM
Experimental: as §1, §2

neutrophils = assay: as above; format: cell-based, human; details: 135 nM
Experimental: as §1, §2

| SMILES | uptake (fluorescence intensities) [1] | uptake [2] | uptake (fluorescent intensities) [3] | 124-specific fluorescence in bladder [4] | 124-specific fluorescence in kidneys [4] | fluorescence in any other tissues [4] | route of excretion [4] | targeting / fluorescence intensities (monocytes) | targeting / fluorescence intensities (neutrophils) |
| --- | --- | --- | --- | --- | --- | --- | --- | --- | --- |
| CC1=CC(C)=[N+]2C1=Cc1ccc(CCCn3cc(CCNC(=O)/C=C/NC(=O)[C@H](O)C(C)(C)CO)nn3)n1[B-]2(F)F [Compound 124] | significant uptake; also recorded: highest intensities; also recorded: best targeting activity, with high uptake into cancer cells | no significant uptake | highest uptake; also recorded: showed uptake | strong 124-specific fluorescence; also recorded: Specific 124-fluorescence was observed; also recorded: strong fluorescence observed in the bladder; also recorded: Fluorescence specific for compound 124 was seen | 124-specific fluorescence was observed in the kidney medulla and kidneys (mainly renal medulla) | No fluorescence | renal clearance; also recorded: renal route |  |  |
| CC1=CC(C)=[N+]2C1=Cc1ccc(CCCn3cc(CCNC(=O)/C=C/NC(=O)[C@@H]4OC(C)(C)OCC4(C)C)nn3)n1[B-]2(F)F [Compound 125, (R,E)-N-((((3-[4,4-difluoro-5,7-dimethyl-4-bora-3a,4a-diaza-s-indacene-3-yl]propyl)-1H-1,2,3-triazol-4-yl)eth-ylamino)-3-oxoprop-1-enyl)-2,2,5,5-tetramethyl-1,3-dioxane-4-carboxamide] |  |  |  |  |  |  |  | showed targeting | showed targeting |
